The record followed here is US4436742A, “4-Hydroxy-2,1,3-benzthiadiazole compounds and β-adrenergic method of use therefor” (Boehringer Mannheim GmbH, priority 1974, dated 1984).

Series [1] is described as follows: acute toxicity in mice, intravenous. Particulars: in vivo, mouse, i.v., dosage at which 50% of the mice die. The protocol:
1. The acute toxicity in mice when administered intravenouly was measured and the LD50 (=dosage at which 50% of the mice die) determined.

Another series concerns cardiac β-receptor. Briefly: inhibition of isoprenalin tachycardia in wake rabbits (cardiac β-receptor blocking activity). Format: in vivo, rabbit. Particulars: for Heartbeat Frequency: isoprenalin 1 μg/kg i.v. 30 minutes after infusion, x ± sx; for DE250: i.v., interpolated dosage which limits the frequence increase to 250 beats/min. The procedure: The following tests were carried out to determine the cardiac β-receptor blocking activity of certain test compounds by determining the inhibition of the heart beat frequency increase induced by intravenous administration of isoprenalin.
The β-receptor blocking activity of the test compounds was tested on wake rabbits weighing between 2 to 3.5 kg. and kept in wooden cages. EKG-electrodes were inserted into the hind quarters of the rabbits s.c. (II. lead) and the heart frequency was measured based on 20 heart beats. The test compounds were then infused through a small tube to the ear vein of the rabbits over a period of 15 minutes. 30 minutes after the infusion isoprenalin (3,4-dihydro-α-[(isopropylamino)-methyl]-benzylalcohol) was injected intravenously at 1 μg/kg.

In the case of `CC(C)NCC(O)COc1cccc2nsnc12` (centres unmarked) [Compound I, 4-(3-Isopropylamino-2-hydroxy-propyloxy)-2,1,3-benzthiadiazole], the LD50 in series [1] turned out to be 50 mg/kg. Besides, the “Heartbeat Frequency” value with cardiac β-receptor (0.01 mg/kg i.v.) is listed as 324 ± 9 beats/min; in the series on cardiac β-receptor (0.1 mg/kg i.v.) it was 297 ± 10 beats/min; in the series on cardiac β-receptor (0.3 mg/kg i.v.), 266 ± 14 beats/min; in the series with cardiac β-receptor (1.0 mg/kg i.v.), 220 ± 14 beats/min; in the series with cardiac β-receptor (5.0 mg/kg i.v.), 210 ± 5 beats/min. This compound also came in with a DE250 in the series with cardiac β-receptor of 0.7 mg/kg.
Turning to `CC(C)NCC(O)COc1ccc2nsnc2c1` (centres unmarked) [Compound A, 5-(3-Isopropylamino-2-hydroxypropoxy)-2,1,3-benzo-thiadiazole, reference compound], in series [1], the LD50 is 100 mg/kg. The “Heartbeat Frequency” value is given as 290 ± 8 beats/min in the series on cardiac β-receptor (1.0 mg/kg i.v.) and 246 ± 7 beats/min in the series on cardiac β-receptor (5.0 mg/kg i.v.). The DE250 in the series on cardiac β-receptor was found to be 5 mg/kg.
In turn, `CC(C)(C)NCC(O)COc1cccc2nsnc12` (centres unmarked) [Compound II] displayed an LD50 in series [1] of 45 mg/kg. For the same compound, the “Heartbeat Frequency” value in the series with cardiac β-receptor (0.1 mg/kg i.v.) is 308 ± 10 beats/min; in the series on cardiac β-receptor (0.5 mg/kg i.v.), 245 ± 6 beats/min; with cardiac β-receptor (1.0 mg/kg i.v.), 215 ± 10 beats/min; with cardiac β-receptor (5.0 mg/kg i.v.), 220 ± 7 beats/min. Also, the DE250 in the series on cardiac β-receptor amounted to 0.5 mg/kg.
